One may read the IC50 as the concentration at which inhibition is half-maximal.

Each structure is given as a SMILES string.

One assay has as its target T1, human CTPS1 (Homo sapiens, UniProt P17812).
T1 construct: purchased Proteros biostructures GmbH
T1 sequence (P17812 1-591): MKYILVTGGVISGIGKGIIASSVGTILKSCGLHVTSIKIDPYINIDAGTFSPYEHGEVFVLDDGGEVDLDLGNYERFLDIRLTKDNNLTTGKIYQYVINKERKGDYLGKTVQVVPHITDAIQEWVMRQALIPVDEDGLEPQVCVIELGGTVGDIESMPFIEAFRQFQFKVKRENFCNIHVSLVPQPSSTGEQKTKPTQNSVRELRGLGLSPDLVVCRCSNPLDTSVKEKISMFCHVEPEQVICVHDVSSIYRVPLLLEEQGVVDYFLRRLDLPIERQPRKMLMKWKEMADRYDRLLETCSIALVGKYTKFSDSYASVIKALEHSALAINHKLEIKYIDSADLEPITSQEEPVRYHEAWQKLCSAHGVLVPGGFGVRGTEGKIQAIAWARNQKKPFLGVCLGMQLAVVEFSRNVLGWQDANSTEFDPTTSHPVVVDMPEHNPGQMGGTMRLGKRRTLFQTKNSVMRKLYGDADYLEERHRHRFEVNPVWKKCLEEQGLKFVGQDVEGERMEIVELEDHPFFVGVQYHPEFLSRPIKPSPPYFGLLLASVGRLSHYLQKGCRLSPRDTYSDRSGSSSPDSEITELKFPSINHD
The experiment in a line: RapidFire/MS-based enzyme selectivity assay, human CTPS1. In kind it is biochemical. To be noted: RapidFire/MS IC50s, human CTPS1 versus CTPS2. As for the experimental part:
Biological Example 2—RapidFire/MS-Based Enzyme Selectivity Assays
Human CTPS1 Versus CTPS2 Selectivity Assessment by RapidFire/MS Analysis.
The enzyme inhibitory activities against each target isoform of interest were determined for the compounds of the invention using an optimised RapidFire high-throughput mass spectrometry (RF/MS) assay format. RF/MS assays for both human CTPS1 and CTPS2 were performed in assay buffer consisting of 50 mM HEPES (Merck), 20 mM MgCl2, 5 mM KCl, 1 mM DTT, 0.01% Tween-20, pH to 8.0 accordingly. All reagents were from Sigma-Aldrich unless specified otherwise. Human full-length active C-terminal FLAG-His-tag CTPS1 (UniProtKB-P17812, CTPS[1-591]-[…]) was obtained from Proteros biostructures GmbH. Human full length active C-terminal FLAG-His-Avi tagged CTPS2 (UniProtKB-Q9NRF8, CTPS2 [1-586]-[…]) was obtained from Harker Bio.
Human CTPS (1 or 2) protein was prepared in 1× assay buffer to the final working protein concentration required for the reaction. A 2 uL volume per well of 2×CTPS (1 or 2) protein was mixed with 40 nL of compound using acoustic (ECHO) delivery and incubated for 10 minutes at 25° C. Each isoform enzymatic reaction was subsequently initiated by addition of 2 uL per well of a 2× substrate mix in assay buffer. For hCTPS1: ATP (0.3 mM), UTP (0.2 mM), GTP (0.07 mM) and L-glutamine (0.1 mM). For hCTPS2: ATP (0.1 mM), UTP (0.04 mM), GTP (0.03 mM) and L-glutamine (0.1 mM). Each mixture was incubated for an appropriate amount of time per isoform within the determined linear phase of the reaction at 25° C. A 60 uL volume of stop solution (1% formic acid with 0.5 uM ^13C9-^15N3-CTP in H2O) was added and the plate immediately heat-sealed and centrifuged for 10 minutes at 4,000 rpm. Following centrifugation, plates were loaded onto the Agilent RapidFire microfluidic solid phase extraction system coupled to an API4000 triple quadrupole mass spectrometer (RF/MS) for analysis.
In all cases, the enzyme converts UTP to CTP. […] Readout for data analysis was calculated as the ratio between the peak area of the product CTP and the internal standard ^13C9-^15N3-CTP. […]
(R=ratio/readout, P=product signal area, IS=internal standard signal area) […]
(I=Inhibition, Rneg=median of negative control readout values, Rpos=median of positive control readout values, Rsample=sample readout value)
Percentage inhibition was then plotted against compound concentration, and the 50% inhibitory concentration ([…]) was determined from the resultant concentration-response curve.
Fold selectivity between CTPS1 and CTPS2 was subsequently calculated according to the following equation: […]
Take `CCOc1cncc(-c2ccc(C(=O)NC(CCOC)c3csc(NS(=O)(=O)C4CC4)n3)c(F)c2)n1` (single isomer, unassigned) [Example R92, N-(1-(2-(cyclopropanesulfonamido)thiazol-4-yl)-3-methoxypropyl)-4-(6-ethoxypyrazin-2-yl)-2-fluorobenzamide]: the “Selectivity (fold selectivity between CTPS1 and CTPS2)” value is “+++ (>60 fold (+++))”.
Same read-out and setting: for `CCOc1cncc(-c2ccc(C(=O)NC(CCOC)c3csc(NS(=O)(=O)C4CC4)n3)c(F)c2)n1` (single isomer, unassigned) [Example R93, N-(1-(2-(cyclopropanesulfonamido)thiazol-4-yl)-3-methoxypropyl)-4-(6-ethoxypyrazin-2-yl)-2-fluorobenzamide] the value was “+++ (>60 fold (+++))”; for `CCOc1cncc(-c2ccc(C(=O)NC(C)(C)c3csc(NS(=O)(=O)C4CC4)n3)c(F)c2)n1` [Example R6, N-(2-(2-(cyclopropanesulfonamido)thiazol-4-yl)propan-2-yl)-4-(6-ethoxypyrazin-2-yl)-2-fluorobenzamide], “++ (>30-60 fold (++))”; for `CCOc1cncc(-c2ccc(C(=O)NC(CC)c3csc(NS(=O)(=O)C4CC4)n3)c(F)c2)n1` (single isomer, unassigned) [Example R71, N-(1-(2-(cyclopropanesulfonamido)thiazol-4-yl)propyl)-4-(6-ethoxypyrazin-2-yl)-2-fluorobenzamide], “+++ (>60 fold (+++))”.

The target of another assay is T1, human CTPS1. The experiment in a line: Human CTPS1 enzyme inhibition, ADP-Glo Max assay. In kind it is biochemical. To be noted: human full length CTPS1, read-out: CTPS1 (Human CTPS1 Enzyme Inhibition data grouped by potency range, IC50). In outline:
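Full-length C-terminal FLAG-His-tagged protein in 50 mM Tris pH 8.0, 10 mM MgCl2, 0.01% Tween-20 and 2 mM L-cysteine, preincubated with compound for 10 min at 25 °C. The substrate mix held ATP 0.31 mM, GTP 0.034 mM, UTP 0.48 mM and L-glutamine 0.186 mM, and the reaction ran within its linear phase. ADP was read by ADP-Glo Max luminescence; IC50 from the % inhibition curve.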
Background: ADP-Glo turns the ADP formed in a reaction into a luminescent signal.
For `CCOc1cncc(-c2ccc(C(=O)NC(CCOC)c3csc(NS(=O)(=O)C4CC4)n3)c(F)c2)n1` (single isomer, unassigned) [Example R92, N-(1-(2-(cyclopropanesulfonamido)thiazol-4-yl)-3-methoxypropyl)-4-(6-ethoxypyrazin-2-yl)-2-fluorobenzamide], the IC50 is < 100 nM.
The same measure, in the same setting: the result for `CCOc1cncc(-c2ccc(C(=O)NC(C)(C)c3csc(NS(=O)(=O)C4CC4)n3)c(F)c2)n1` [Example R6, N-(2-(2-(cyclopropanesulfonamido)thiazol-4-yl)propan-2-yl)-4-(6-ethoxypyrazin-2-yl)-2-fluorobenzamide] reads < 100 nM; that for `CCOc1cncc(-c2ccc(C(=O)NC(CC)c3csc(NS(=O)(=O)C4CC4)n3)c(F)c2)n1` (single isomer, unassigned) [Example R71, N-(1-(2-(cyclopropanesulfonamido)thiazol-4-yl)propyl)-4-(6-ethoxypyrazin-2-yl)-2-fluorobenzamide], < 100 nM.
Take `CCOc1cncc(-c2ccc(C(=O)NC3(c4csc(NS(=O)(=O)C5CC5)n4)CC3)c(F)c2)n1` [Example R82, N-(1-(2-(cyclopropanesulfonamido)thiazol-4-yl)cyclopropyl)-4-(6-ethoxypyrazin-2-yl)-2-fluorobenzamide]: the concentration for half-maximal inhibition (IC50) was < 100 nM.
On the same count and under the same terms, for `Cc1cncc(-c2ccc(C(=O)NC(C)(C)c3csc(NS(=O)(=O)C4CC4)n3)cc2)n1` [Example R53, N-(2-(2-(cyclopropanesulfonamido)thiazol-4-yl)propan-2-yl)-4-(6-methylpyrazin-2-yl)benzamide] the value was 100 to 1000 nM.
The same measure, in the same setting: the result for `CC(C)(NC(=O)c1ccc(-c2cncc(F)c2)cc1F)c1csc(NS(=O)(=O)C2CC2)n1` [Example R31] reads 100 to 1000 nM.
Same read-out and setting: for `Cc1cc(-c2cncc(C(F)(F)F)n2)ccc1C(=O)NC1(c2csc(NS(=O)(=O)C3CC3)n2)CC1` [Example R83, N-(1-(2-(cyclopropanesulfonamido)thiazol-4-yl)cyclopropyl)-2-methyl-4-(6-(trifluoromethyl)pyrazin-2-yl)benzamide] the value was < 100 nM.
In the case of `COc1cc(-c2cncc(C(F)(F)F)n2)ccc1C(=O)NC(C)(C)c1csc(NS(=O)(=O)C2CC2)n1` [Example R48, N-(2-(2-(cyclopropanesuIfonamido)thiazol-4-yl)propan-2-yl)-2-methoxy-4-(6-(trifluoromethyl)pyrazin-2-yl)benzamide], the half-inhibitory concentration (IC50) fell in the range of 100 to 1000 nM.
On the same count and under the same terms, for `CCC(NC(=O)c1ccc(-c2cncc(C)c2)cc1)c1csc(NS(=O)(=O)C2CC2)n1` (racemic) [Example R60, N-(1-(2-(cyclopropanesulfonamido)thiazol-4-yl)propyl)-4-(5-methylpyridin-3-yl)benzamide] the value was 100 to 1000 nM; for `CCC(CC)(NC(=O)c1ccc(-c2cncc(Cl)n2)cc1)c1csc(NS(=O)(=O)C2CC2)n1` [Example R20, 4-(6-chloropyrazin-2-yl)-N-(3-(2-(cyclopropanesulfonamido)thiazol-4-yl)pentan-3-yl)benzamide], < 100 nM; for `O=C(NCc1csc(NS(=O)(=O)C2CC2)n1)c1ccc(-c2cncc(C(F)(F)F)n2)cc1` [Example R12, N-((2-(cyclopropanesulfonamido)thiazol-4-yl)methyl)-4-(6-(trifluoromethyl)pyrazin-2-yl)benzamide], < 100 nM.
In the case of `CCOc1cncc(-c2ccc(C(=O)NC(C)(C)c3csc(NS(=O)(=O)C4CC4)n3)nc2)n1` [Example R26, N-(2-(2-(cyclopropanesulfonamido)thiazol-4-yl)propan-2-yl)-5-(6-ethoxypyrazin-2-yl)picolinamide], the IC50 fell in the range of 100 to 1000 nM.
As to `CCC(NC(=O)c1ccc(-c2cncc(F)c2)cc1)c1csc(NS(=O)(=O)C2CC2)n1` (single isomer, unassigned) [Example R69, N-(1-(2-(cyclopropanesulfonamido)thiazol-4-yl)propyl)-4-(5-fluoropyridin-3-yl)benzamide], the half-maximal inhibitory concentration (IC50) was < 100 nM.
Consider `CCC(CC)(NC(=O)c1ccc(-c2cnccn2)cc1)c1csc(NS(=O)(=O)C2CC2)n1` [Example R22, N-(3-(2-(cyclopropanesulfonamido)thiazol-4-yl)pentan-3-yl)-4-(pyrazin-2-yl)benzamide], for which the IC50 was 100 to 1000 nM.
As to `CC(C)(NC(=O)c1ccc(-c2cncc(C(F)(F)F)n2)cc1F)c1csc(NS(=O)(=O)C2CC2)n1` [Example R42, N-(2-(2-(cyclopropanesuIfonamido)thiazol-4-yl)propan-2-yl)-2-fluoro-4-(6-(trifluoromethyl)pyrazin-2-yl)benzamide], the IC50 was < 100 nM.
Turning to `O=C(NCc1csc(NS(=O)(=O)C2CC2)n1)c1ccc(-c2cccnc2)cc1` [Example R1, N-((2-(cyclopropanesulfonamido)thiazol-4-yl)methyl)-4-(pyridin-3-yl)benzamide], the IC50 was in the range of 100 to 1000 nM.
